Values joined by “and” are separate entries in the source; they are usually repeats but may differ in a detail not shown here. Identical values can stand only once.
Key:
[1] = system: MelanoDerm tissue (MEL-300-B); experiment: Melanin assay on MelanoDerm tissue (MEL-300-B); assay type: cell-based, human; set-up: % melanin content relative to the Negative Control / % melanin content relative to the Positive Control: concentration or dose not given beside the values; details: for Melanin content of the two tested samples for each test article: 25 μL applied Days 0, 1, 3, 6, 8
Experimental: (§1) The effects of the test articles on skin color, melanin production, melanocyte morphology and dendricity and tissue morphology were assessed using MelanoDerm tissue (MEL-300-B). MelanoDerm tissue is another epidermal equivalent system from the MatTek Corporation of Ashland, Mass. This system consists of normal, human-derived epidermal keratinocytes (NHEK) and melanocytes (NHM) which have been cultured to form a multilayered, highly differentiated model of the human epidermis. The NHM within co-cultures undergo spontaneous melanogenesis leading to tissue pigmentation. The MEL-300-B system contains melanocytes derived from a donor.
On Day zero of the study, prior to exposure to any test articles, MelanoDerm tissue samples were placed into wells on plates containing maintenance medium that had been pre-warmed to about 37° C. (Long life maintenance medium, EPI-100-LLMM). The Melanoderm tissue samples were then incubated for about an hour in a humidified incubator maintained at a temperature of about 37° C. in an atmosphere of about 5% CO2. Following incubation, the maintenance medium was removed by aspiration. A cell culture stand was then placed in each well on the plate containing a MelanoDerm tissue sample. About 5 mL of fresh maintenance medium pre-warmed to about 37° C. was then added to each well having a MelanoDerm tissue sample. Then a cell culture insert was placed on top of each cell culture stand. 25 μL portions of each of GS, SB, A, FS, DG, Mix, negative control, and positive control were applied by pipette to six separate MelanoDerm tissue samples for each test article being tested (e.g., GS was applied to six tissue samples in six different wells). 25 μL portions of each of the test articles and controls were also applied to the same MelanoDerm tissue samples on Days, 1, 3, 6, and 8 of the study for each sample remaining (some samples were used for testing). Throughout the study, the maintenance medium was changed every two days to maintain the MelanoDerm tissue samples.
On each of Days 3, 7, 10, and 14, one tissue sample for each test article and control was fixed with formalin, photographed to document macroscopic darkening, microscopically observed to examine melanocyte morphology and dendricity, then processed for histology. On Days 10 and 14, two tissue samples for each test article and control were frozen and later assayed for melanin content.
To assay the tissues for melanin content, the frozen tissues were thawed and placed in Dulbecco's phosphate buffered saline (D-PBS) to remove excess phenol red from the maintenance medium. The tissues were removed from the D-PBS and each tissue was blotted dry and placed in a separate 1.7 ml microfuge tube. To each microfuge tube 250 μl of a tissue and gel solubilizer was added (Solvable™, 0.5 M—Packard BioScience Co. Catalogue No. 6NE9 100 (NEF910)). Dilutions for creating a standard curve were also prepared containing from 0-250 μg of melanin (Sigma cat. M 8631) in a total of 250 μl Solvable™. The tissues were incubated in their tubes overnight at about 60° C. overnight along with the dilutions. The tissue samples were then vortexed. Then the tissue samples were centrifuged at 13,000 rpm for 5 minutes to pellet. The supernatant from the tissue samples was collected. 250 μl of the supernatant from each tissue sample as well as the dilutions were then added to separate wells of a microwell plate. The plate was read at 490 nm. The optical densities of the dilutions were used to prepare a standard curve against which the optical densities of the tissue sample supernatants could be compared to determine the melanin content of the tissue samples. […]

[2] = system: MelanoDerm tissue (MEL-300-B); experiment: Macroscopic skin lightening of fixed MelanoDerm tissue; assay type: cell-based, human; details: fixed tissues
Experimental: as §1
On Day zero of the study, prior to exposure to any test articles, MelanoDerm tissue samples were placed into wells on plates containing maintenance medium that had been pre-warmed to about 37° C. (Long life maintenance medium, EPI-100-LLMM). The Melanoderm tissue samples were then incubated for about an hour in a humidified incubator maintained at a temperature of about 37° C. in an atmosphere of about 5% CO2. Following incubation, the maintenance medium was removed by aspiration. A cell culture stand was then placed in each well on the plate containing a MelanoDerm tissue sample. About 5 mL of fresh maintenance medium pre-warmed to about 37° C. was then added to each well having a MelanoDerm tissue sample. […]

[3] = system: EpiDerm tissue (normal, human-derived epidermal keratinocytes); experiment: MTT tissue viability assay on EpiDerm tissue; assay type: cell-based; details: 48 hours of exposure, negative control = 100%
Experimental: The effect of the tested articles on cell viability was determined with an MTT assay. 10 μL and 25 μL portions of each of GS, SB, A, FS, DG and Mix were applied to separate duplicate samples of EpiDerm tissue (e.g., GS was applied to four tissue samples, with two samples receiving 10 μL and two samples receiving 25 μL of GS). 25 μL of the negative control was applied to each of three separate samples of EpiDerm tissue. EpiDerm tissue is an epidermal equivalent system from the MatTek Corporation of Ashland, Mass., consisting of normal, human-derived epidermal keratinocytes (NHEK) which have been cultured to form a multilayered, highly differentiated model of the human epidermis. After 48 hours of exposure to the test article or negative control each sample was rinsed with phosphate buffered saline (PBS) and the viability of the tissue (referenced to the negative control) was determined using the MTT tissue viability assay.
The MTT assay determines cell viability by measuring the amount of 3-(4,5-dimethylthiazol-2-yl)-2,5-diphenyltetrazolium bromide (MTT) dye taken up by the cell cultures. Viable cells take up this dye and convert it to insoluble formazin crystals that resides in the mitochondria of the cells until extracted with alcohol. […] MTT was measured spectrophotometrically and the optical density of each sample was determined. […]

SMILES	% melanin content relative to the Negative Control ([1]; Day 10)	% melanin content relative to the Positive Control ([1]; Day 10)	Average melanin content ([1]; Day 10)	Melanin content of the two tested samples for each test article ([1]; Day 10)	melanin content compared with the negative control (in words) ([1]; Day 10 and Day 14)	% melanin content relative to the Negative Control ([1]; Day 14)	% melanin content relative to the Positive Control ([1]; Day 14)	Average melanin content ([1]; Day 14)	Melanin content of the two tested samples for each test article ([1]; Day 14)	macroscopic lightening compared with the negative control ([2]; Days 3, 7, and 10)	% Viability of tissue sample exposed to test article ([3]; 10 mL (so in the source) applied)	% Viability of tissue sample exposed to test article ([3]; 25 mL (so in the source) applied)	macroscopic lightening compared with the negative control ([2]; Days 3, 7, 10, and 14)
O=c1cc(CO)occ1O [Positive Control, kojic acid]	91.9%	100.0%	22.7 μg/tissue	25.0 μg/tissue and 20.3 μg/tissue	lower melanin content than the negative control	72.3%	100.0%	26.8 μg/tissue	26.6 μg/tissue and 27.0 μg/tissue	lighter than the negative control			
CC1(C)[C@@H](O[C@H]2O[C@H](C(=O)[O-])[C@@H](O)[C@H](O)[C@H]2O[C@@H]2O[C@H](C(=O)[O-])[C@@H](O)[C@H](O)[C@H]2O)CC[C@]2(C)[C@H]3C(=O)C=C4[C@@H]5C[C@@](C)(C(=O)O)CC[C@]5(C)CC[C@@]4(C)[C@]3(C)CC[C@@H]12.[K+].[K+] [DG, dipotassium glycyrrhizate]	100.6%	109.5%	24.8 μg/tissue	27.3 μg/tissue and 22.3 μg/tissue		85.8%	118.7%	31.8 μg/tissue	26.0 μg/tissue and 37.6 μg/tissue		94.62%	94.46%	lightening effect
